Assay results from patent US20120022143A1, “RNA Interference Mediated Inhibition of the Thymic Stromal Lymphopoietin (TSLP) Gene Expression Using Short Interfering Nucliec Acid (siNA)” (Merck Sharp & Dohme Corp, priority 2009, published 2012).
[invAb] = inverted abasic unit; d = 2'-deoxy (DNA); m = 2'-O-methyl; r = 2'-OH (RNA); f = 2'-fluoro

Legend:
mTSLP mRNA = experiment: Initial screening: mouse TSLP mRNA knock-down by RT-PCR (Taqman) after RNAiMax transfection of NIH 3T3 cells; type: cell-based; settings: 10 nM siNA, 24 hrs post-transfection, mean ± s.d., summary from 2 screens
Procedure: (§1) All cells were obtained from ATCC (Manassas, Va.) unless otherwise indicated. Cells were grown and transfected under standard conditions, which are detailed below for each cell line.
NIH 3T3 (murine; ATCC cat#CRL-1658): Cells were cultured at 37° C. in the presence of 5% CO2 and grown in Dulbecco's modified Eagle's medium (DMEM) with 4 mM L-glutamine adjusted to contain 1.5 g/L sodium bicarbonate and 4.5 g/L glucose and supplemented with fetal bovine serum at a final concentration of 10% and 100 μg/mL of streptomycin and 100 U/mL penicillin.
(§2) All transfections were performed using RNAiMax (Invitrogen Cat# 13778-150) as per the manufacturer's instructions.
(§3) Both human and murine cell lines were transfected in the similar fashion. Cells were plated in all wells of a tissue-culture treated, 96-well plate at a final count of 5,000 cells/well in […], of appropriate culture media. Cells were cultured for 24 hours after plating at 37° C. in the presence of 5% CO2.
(§4) After 24 hours, complexes containing siNA and RNAiMax were created as follows: A solution of RNAiMax diluted 33-fold in OPTI-MEM was prepared. In parallel, solutions of the siNAs for testing were prepared to a final concentration of 120 nM in OPTI-MEM. After incubation of RNAiMax/OPTI-MEM solution at room temperature for 5 min, an equal volume of the siNA solution and the RNAiMax solution were added together for each of the siNAs.
(§5) This solution was incubated at room temperature for 20 minutes. After incubation, 20 uL of the solution was added to each of the relevant wells.
(§6) The final concentration of siNA in each well was 10 nM and the final volume of RNAiMax in each well was 0.3 ul.
(§7) The time of incubation with the RNAiMax-siNA complexes was 24 hours, unless otherwise indicated. There was no change in media between the transfection and harvesting of the cells unless otherwise indicated.
(§8) RNA was extracted from a 96-well plate using the TaqMan® Gene Expression Cells-to-CT™ Kit (Cat# 4399002) with a modified protocol. Briefly, a 60 uL (1 plate) or 110 uL (2 plates) of the Lysis Solution with DNase I was dispensed into each well of the Lysis Buffer Plate (twin.tec full skirt plate). The lysis buffer and stop plates were stored at 4° C. until the cells were washed.
(§9) The plate was spun at 1100 rpm for 5 minutes. The culture medium was aspirated and discarded from the wells of the culture plate. The lysis was performed automatically using a BioMek FX instrument and method. After the Biomek method was completed, the lysis plate was incubated for 2 min. at room temperature. The lysis plate can be stored for 2 hours at 4° C., or at −20° C. or −80° C. for two months.
(§10) Each well of the reverse transcription plate required 10 uL of 2× reverse transcriptase Buffer, luL of 20× reverse transcription enzyme and 2 uL of nuclease-free water. The reverse transcription master mix was prepared by mixing 2× reverse transcription buffer, 20× reverse transcription enzyme mix, and nuclease-free water. 13 uL of the reverse transcription master mix was dispensed into each well of the reverse transcription plate (semi-skirted). A separate reverse transcription plate was prepared for each cell plate. The plate was loaded onto a Biomek NX or Biomek FX Dual-96 and the Biomek method was run. The program is programmed to automatically added 7 uL of lysate from the cell lysis procedure described above into each well of the reverse transcription plate. The plate is sealed and spun on a centrifuge (1000 rpm for 30 seconds) to settle the contents to the bottom of the reverse transcription plate. The plate is placed in a thermocycler at 37° C. for 60 min, 95° C. for 5 min, and 4° C. until the plate is removed from the thermocycler. Upon removal, if not used immediately, the plate was frozen at −20° C.
A series of probes and primers were used to detect the various mRNA transcripts of the genes of TSLP, IL-8 and GAPDH in human cell lines. […]

TSLP mRNA = experiment: Initial screening: TSLP mRNA knock-down by RT-PCR (Taqman) after RNAiMax transfection of NHLF cells; type: cell-based; settings: 10 nM siNA, human NHLF cells, 24 hrs post-transfection, relative to non-targeting control, normalized to GAPDH; mean ± s.d. from 2 experiments
Procedure: as §1
NHLF (human; Lonza cat# CC-2512): Cells were cultured at 37° C. in the presence of 5% CO2 and grown Fibroblast Basal Medium (Lonza cat# CC-3β2) supplemented growth factors (provided with the kit) and 100 μg/mL of streptomycin and 100 U/mL penicillin.
as §2, §3, §4, §5, §6, §7, §8, §9, §10
A series of probes and primers were used to detect the various mRNA transcripts of the genes of TSLP, IL-8 and GAPDH in human cell lines. All the Taqman probes and primers for the experiments here-in described were supplied as pre-validated sets by Applied Biosystems, Inc. (see Table 2). […]

| Substance | % KD mTSLP NIH3T3 (mTSLP mRNA) [%] | % KD TSLP (TSLP mRNA) [%] |
| --- | --- | --- |
| 25464-DC: siNA duplex: sense B ccAGAAuAAAAuuAGcuuu TTB (SEQ ID NO: 111), antisense AAAGcuAAuuuuAuucuGGUU (SEQ ID NO: 112) (sense CCAGAAUAAAAUUAGCUUUTT; antisense AAAGCUAAUUUUAUUCUGGUU; sense: DNA at AGT, 2'-fluoro at CU, [invAb] at 5' end, 3' end, backbone not given here; antisense: sugars from the 5' end rrrmffmmffffmffffmmmm, backbone not given here) | 89.2 ± 1.1 | 3 ± 39 |
| 25460-DC: siNA duplex: sense B GucuGAAucAAAccucACA TTB (SEQ ID NO: 103), antisense UGUGAGGuuuGAuucAGAcUU (SEQ ID NO: 104) (sense GUCUGAAUCAAACCUCACATT; antisense UGUGAGGUUUGAUUCAGACUU; sense: sugars from the 5' end dfffdddffdddffffddddd, [invAb] at 5' end, 3' end, backbone not given here; antisense: sugars from the 5' end rrrmmmmfffmmfffmmmfmm, backbone not given here) | 40.8 ± 1.4 | −7 ± 10.7 |
| 25465-DC: siNA duplex: sense B cuGcuAuGAAAAucucuAu TTB (SEQ ID NO: 113), antisense AUAGAGAuuuucAuaGcAGUU (SEQ ID NO: 114) (sense CUGCUAUGAAAAUCUCUAUTT; antisense AUAGAGAUUUUCAUAGCAGUU; sense: DNA at AGT, 2'-fluoro at CU, [invAb] at 5' end, 3' end, backbone not given here; antisense: RNA at 1, 2, 3, 2'-O-methyl at 4, 5, 6, 7, 13, 16, 18, 19, 20, 21, 2'-fluoro at 8, 9, 10, 11, 12, 14, 17, other sugars and backbone not given here) | 48.6 ± 2.2 | 23 ± 4.8 |
| 25439-DC: siNA duplex: sense B cAcGuGGGAAuGcAcuGAu TTB (SEQ ID NO: 61), antisense AUCAGuGcAuucccAcGuGUU (SEQ ID NO: 62) (sense CACGUGGGAAUGCACUGAUTT; antisense AUCAGUGCAUUCCCACGUGUU; sense: DNA at AGT, 2'-fluoro at CU, [invAb] at 5' end, 3' end, backbone not given here; antisense: sugars from the 5' end rrrmmfrfmfffffmfmfrmm, backbone not given here) | 16.8 ± 14.7 | 12 ± 36.7 |
| 25453-DC: siNA duplex: sense B AuuAcAGAAGAGuuucuuA TTB (SEQ ID NO: 89), antisense UAAGAAAcucuucuGuAAuUU (SEQ ID NO: 90) (sense AUUACAGAAGAGUUUCUUATT; antisense UAAGAAACUCUUCUGUAAUUU; sense: DNA at AGT, 2'-fluoro at CU, [invAb] at 5' end, 3' end, backbone not given here; antisense: sugars from the 5' end rrrmmmmfffffffmfmmfmm, backbone not given here) | −8.6 ± 12.2 | 81 ± 10.5 |
| 25455-DC: siNA duplex: sense B AcAGAAGAGuuucuuAAcu TTB (SEQ ID NO: 93), antisense AGUuAAGAAAcucuucuGuUU (SEQ ID NO: 94) (sense ACAGAAGAGUUUCUUAACUTT; antisense AGUUAAGAAACUCUUCUGUUU; sense: DNA at AGT, 2'-fluoro at CU, [invAb] at 5' end, 3' end, backbone not given here; antisense: sugars from the 5' end rrrfmmmmmmfffffffmfmm, backbone not given here) | 4.9 ± 26 | 79 ± 11.3 |
